What was measured:
[1] = cited from earlier work
[2] = system: MDA-MB-468 and T47D cells; test: Cell cycle analysis (PI staining); type: cell-based, human; conditions: 100 μM
Procedure: Cell cycle analysis of breast cancer cells was carried out using propidium iodide (PI) staining protocol according to the manufacturer's instructions (Nexcelom Bioscience LLC, Lawrence, MA). […] Then, cells were harvested by trypsinization, centrifuged at 2000 rpm for 5 minutes, washed with PBS (pH 7.4), and fixed in ice cold 100% ethanol for 15 minutes. The cells were spun down and resuspended in 150 μl of PI-staining solution provided with the Cellometer PI Cell Cycle Kit. The PI-stained cells were then subjected to analysis in the Cellometer Vision instrument (Nexcelom Bioscience LLC) and the data was captured on Cellometer Vision CBA software (Nexcelom Bioscience LLC) and analyzed by FCS Express 4 software (Molecule Devices, Corp., Sunnyvale, CA). Differences in fluorescence intensity were used to determine the percentage of cells in each phase of the cell cycle and represented as histograms for control and drug-treated samples.

NK-92 MI cells = test: Cytotoxic protein levels in human NK cells (Western blot); type: cell-based; conditions: 50 μM, 12 hours
Procedure: The human NK cell line NK-92 MI (ATCC) was maintained in alpha minimum essential medium (MEM) without ribonucleosides and deoxyribonucleosides (Gibco) supplemented with final concentrations of 12-5% FBS, 12-5% horse serum (ATCC), 2 mM L-glutamine (Gibco), 1.5 g/L sodium bicarbonate (Gibco), 0.2 mM inositol (Sigma), 0.1 mM 2-mercaptoethanol (Gibco), and 0.02 mM folic acid (Sigma).
For protein analyses, tumor tissues from in vivo experiments, enriched NK cells from the spleen, and NK-92 MI cancer cell co-incubated samples were lysed with a buffer containing protease and phosphatase inhibitors (25 mM Tris-HCl, pH 7.4; 150 mM NaCl; 1% Nonidet P-40; 1 mM EDTA; and 5% glycerol with Pierce Halt Protease Inhibitor). Protein (50 mg) from total lysate was loaded and separated on a 4-20% SDS-PAGE and transferred overnight to polyvinylidene difluoride membranes. Membranes were incubated with primary Ab for 12 hours at 4° C. in blocking buffer, 5% w/v nonfat dry milk in TBS, and 0.1% Tween 20. The following primary antibodies were purchased from Santa Cruz Biotechnology (Santa Cruz, CA): anti-perforin rabbit polyclonal (1:250), anti-granzyme B mouse monoclonal (1:200), anti-IFN-γ mouse monoclonal (1:250), anti-Snail (1:200), anti-Slug (1:200), and anti-Twist. Anti-E-cadherin (1:250), anti-N-cadherin (1:250), and anti-NKG2D goat polyclonal (1:500) were all from Abcam (Cambridge, MA). […]

Structure (SMILES) | water solubility [1] | number of cells in the G0/G1 cycle [2] | granzyme B levels (NK-92 MI cells) | perforin levels (NK-92 MI cells)
O=C1CC[C@@]2(O)[C@H]3Cc4ccc(O)c5c4[C@@]2(CCN3CC2CC2)[C@H]1O5 [NTX, 17-(cyclopropylmethyl)-4,5α-epoxy-3,14-dihydroxymorphinan-6-one] | not water soluble | moderately but not significantly reduced |  | 
CC(C)NCC(O)COc1cccc2ccccc12 (stereo not shown) [PRO, propranolol] |  |  | moderately elevated | moderately elevated

From patent US20240390490A1, “PHARMACEUTICAL COMPOSITIONS FOR THE TREATMENT OF CANCERS” (Rutgers, The State University of New Jersey, priority 2021, published 2024)
